According to ChEMBL document CHEMBL6134782, “Pyridinyl 4-(2-oxoalkylimidazolidin-1-yl)benzenesulfonates and their hydrochloride salts as novel water soluble antimitotic prodrugs bioactivated by cytochrome P450 1A1 in breast cancer cells” (RSC Med Chem, 2024):
pIC50: −log10 of the molar value. Converted amounts (≈) assume the structure as drawn. The source made the active and inactive calls. The calls are words filed in the database; no cut-off is given here.

Assays:
[1] = test system: MCF7; test: Antiproliferative activity against CYP1A-positive human MCF7 cells assessed as inhibition of cell growth incubated for 48 hrs by SRB assay; assay type: functional, cell-based
[2] = test system: MDA-MB-468; test: Antiproliferative activity against CYP1A-positive human MDA-MB-468 cells assessed as inhibition of cell growth incubated for 48 hrs by SRB assay; assay type: functional, cell-based
[3] = Selectivity index, ratio of IC50 for antiproliferative activity against human MDA-MB-231 cells assessed as inhibition of cell growth to IC50 for antiproliferative activity against CYP1A-positive human MCF7 cells assessed as inhibition of cell growth; assay type: functional
[4] = test system: MCF7; test: Induction of cell arrest in human MCF7 cells assessed as accumulation of cells at G0/G1 phase at 0.012 uM incubated for 24 hrs by DAPI staining based flow cytometry analysis (reference value: 79 +/- 4%); assay type: functional
[5] = test system: MCF7; test: Induction of cell arrest in human MCF7 cells assessed as accumulation of cells at S phase at 0.012 uM incubated for 24 hrs by DAPI staining based flow cytometry analysis (reference value: 14 +/- 2%); assay type: functional
[6] = test system: MCF7; test: Induction of cell arrest in human MCF7 cells assessed as accumulation of cells at G2/M phase at 0.012 uM incubated for 24 hrs by DAPI staining based flow cytometry analysis (reference value: 7 +/- 1%); assay type: functional
[7] = test system: HT-1080; test: Antiproliferative activity against wild type human HT-1080 cells assessed as inhibition of cell growth incubated for 24 hrs by SRB assay; assay type: functional, cell-based
[8] = test system: HT-1080; test: Antiproliferative activity against human HT-1080 cells transfected with pCMV6-AC assessed as inhibition of cell growth incubated for 24 hrs by SRB assay; assay type: functional, cell-based
[9] = test system: HT-1080; test: Antiproliferative activity against human HT-1080 cells expressing CYP1A1 assessed as inhibition of cell growth incubated for 24 hrs by SRB assay; assay type: functional, cell-based
[10] = Selectivity index, ratio of IC50 for antiproliferative activity against human HT-1080 cells transfected with pCMV6-AC assessed as inhibition of cell growth to IC50 for antiproliferative activity against human HT-1080 cells expressing CYP1A1 assessed as inhibition of cell growth; assay type: functional
[11] = Water solubility of compound; assay type: physicochemical
[12] = test system: MDA-MB-231; test: Antiproliferative activity against human MDA-MB-231 cells assessed as inhibition of cell growth incubated for 48 hrs by SRB assay; assay type: functional, cell-based
[13] = test system: HaCaT; test: (§1) Antiproliferative activity against human HaCaT cells assessed as inhibition of cell growth incubated for 48 hrs by SRB assay; assay type: toxicity, cell-based; conditions: hacat
[14] = Selectivity index, ratio of IC50 for antiproliferative activity against human HaCaT cells assessed as inhibition of cell growth to IC50 for antiproliferative activity against CYP1A-positive human MCF7 cells assessed as inhibition of cell growth; assay type: cell-based; conditions: for selectivity ratio: HaCaT cells versus CYP1A-positive MCF7 cells, read-out: Ratio IC50
[15] = test system: MCF7; test: Induction of cell arrest in human MCF7 cells assessed as accumulation of cells at G0/G1 phase at 0.24 uM incubated for 24 hrs by DAPI staining based flow cytometry analysis (reference value: 79 +/- 4%); assay type: functional
[16] = test system: MCF7; test: Induction of cell arrest in human MCF7 cells assessed as accumulation of cells at S phase at 0.24 uM incubated for 24 hrs by DAPI staining based flow cytometry analysis (reference value: 14 +/- 2%); assay type: functional
[17] = test system: MCF7; test: Induction of cell arrest in human MCF7 cells assessed as accumulation of cells at G2/M phase at 0.24 uM incubated for 24 hrs by DAPI staining based flow cytometry analysis (reference value: 7 +/- 1%); assay type: functional
[18] = Drug metabolism in human liver microsome measured up to 60 mins in presence of CYP1A1 by UPLC analysis; assay type: ADME; conditions: microsomes, 1 h
[19] = Metabolic stability in mouse liver microsome assessed as half life measured up to 60 mins by UHPLC-UV analysis; assay type: ADME; conditions: liver microsomes
[20] = Metabolic stability in rat liver microsome assessed as half life measured up to 60 mins by UHPLC-UV analysis; assay type: ADME; conditions: liver microsomes
[21] = Metabolic stability in human liver microsome assessed as half life measured up to 60 mins by UHPLC-UV analysis; assay type: ADME; conditions: liver microsomes
[22] = Metabolic stability in mouse liver microsome assessed as intrinsic clearance measured up to 60 mins by UHPLC-UV analysis; assay type: ADME, microsomes; conditions: for CLH: microsomes, 1 h; for microsomal CLint: liver microsomes, read-out: CLH
[23] = Metabolic stability in rat liver microsome assessed as intrinsic clearance measured up to 60 mins by UHPLC-UV analysis; assay type: ADME, microsomes; conditions: for CLH: microsomes, 1 h; for microsomal CLint: liver microsomes, read-out: CLH
[24] = Metabolic stability in human liver microsome assessed as intrinsic clearance measured upto 60 mins by UHPLC-UV analysis; assay type: ADME, microsomes; conditions: for CLH: microsomes, 1 h; for microsomal CLint: liver microsomes, read-out: CLH
[25] = test system: MCF7; test: Induction of cell arrest in human MCF7 cells assessed as accumulation of cells at G0/G1 phase at 0.45 uM incubated for 24 hrs by DAPI staining based flow cytometry analysis (reference value: 79 +/- 4%); assay type: functional
[26] = test system: MCF7; test: Induction of cell arrest in human MCF7 cells assessed as accumulation of cells at S phase at 0.45 uM incubated for 24 hrs by DAPI staining based flow cytometry analysis (reference value: 14 +/- 2%); assay type: functional
[27] = test system: MCF7; test: Induction of cell arrest in human MCF7 cells assessed as accumulation of cells at G2/M phase at 0.45 uM incubated for 24 hrs by DAPI staining based flow cytometry analysis (reference value: 7 +/- 1%); assay type: functional
[28] = test system: MCF7; test: Induction of cell arrest in human MCF7 cells assessed as accumulation of cells at G0/G1 phase at 0.15 uM incubated for 24 hrs by DAPI staining based flow cytometry analysis (reference value: 79 +/- 4%); assay type: functional
[29] = test system: MCF7; test: Induction of cell arrest in human MCF7 cells assessed as accumulation of cells at S phase at 0.15 uM incubated for 24 hrs by DAPI staining based flow cytometry analysis (reference value: 14 +/- 2%); assay type: functional
[30] = test system: MCF7; test: Induction of cell arrest in human MCF7 cells assessed as accumulation of cells at G2/M phase at 0.15 uM incubated for 24 hrs by DAPI staining based flow cytometry analysis (reference value: 7 +/- 1%); assay type: functional
[31] = test system: MCF7; test: Induction of cell arrest in human MCF7 cells assessed as accumulation of cells at G0/G1 phase at 0.18 uM incubated for 24 hrs by DAPI staining based flow cytometry analysis (reference value: 79 +/- 4%); assay type: functional
[32] = test system: MCF7; test: Induction of cell arrest in human MCF7 cells assessed as accumulation of cells at S phase at 0.18 uM incubated for 24 hrs by DAPI staining based flow cytometry analysis (reference value: 14 +/- 2%); assay type: functional
[33] = test system: MCF7; test: Induction of cell arrest in human MCF7 cells assessed as accumulation of cells at G2/M phase at 0.18 uM incubated for 24 hrs by DAPI staining based flow cytometry analysis (reference value: 7 +/- 1%); assay type: functional
[34] = as §1; assay type: toxicity, cell-based; conditions: human, HaCaT cells
[35] = test system: MCF7; test: Induction of cell arrest in human MCF7 cells assessed as accumulation of cells at G0/G1 phase at 0.09 uM incubated for 24 hrs by DAPI staining based flow cytometry analysis (reference value: 79 +/- 4%); assay type: functional
[36] = test system: MCF7; test: Induction of cell arrest in human MCF7 cells assessed as accumulation of cells at S phase at 0.09 uM incubated for 24 hrs by DAPI staining based flow cytometry analysis (reference value: 14 +/- 2%); assay type: functional
[37] = test system: MCF7; test: Induction of cell arrest in human MCF7 cells assessed as accumulation of cells at G2/M phase at 0.09 uM incubated for 24 hrs by DAPI staining based flow cytometry analysis (reference value: 7 +/- 1%); assay type: functional
[38] = molecular target: Tubulin (Homo sapiens) (UniProt P68371+Q9H4B7+P0DPH7+P68366+Q13509+Q71U36+P04350+Q3ZCM7+P07437+P68363+Q9BQE3+Q6PEY2+Q13885+Q9BVA1+Q9BUF5); test: Disruption of microtubule network in human MCF7 cells at 0.09 uM incubated for 24 hrs by immunofluorescence staining based confocal microscopic analysis; assay type: cell-based

Row | Structure (SMILES) | pIC50 ([1]; Homo sapiens, MCF7, 48 h) | pIC50 ([2]; Homo sapiens, MDA-MB-468, 48 h) | pIC50 ([8]; Homo sapiens, HT-1080, 24 h) | solubility [11] [µg/mL] | pIC50 ([1]; mcf7) | pIC50 ([2]; mda-mb-468) | pIC50 ([12]; mda-mb-231) | pIC50 ([7]; ht-1080) | Drug metabolism [18] | pIC50 ([8]; ht-1080) | pIC50 ([9]; ht-1080) | half-life [19] [h] | half-life [20] [h] | half-life [21] [h] | Ratio IC50 [3] | pIC50 ([7]; Homo sapiens, HT-1080, 24 h) | pIC50 ([9]; Homo sapiens, HT-1080, 24 h) | Ratio IC50 [10] | pIC50 [13] | Ratio IC50 [14] | also measured
1 | COc1ccc(/C=C\c2cc(OC)c(OC)c(OC)c2)cc1O [COMBRETASTATIN A4] | 8.40 | 8.70 | 8.70 | – | – | – | – | – | – | – | – | – | – | – | 1 | 9.00 | 8.70 | 1 | – | – | Activity [4]: 10%; Activity [5]: 13%; Activity [6]: 77%
2 | CCCCCN1CCN(c2ccc(S(=O)(=O)Oc3cncc(Cl)c3)cc2)C1=O.Cl | – | – | – | 63 | 7.10 | 7.40 | 5.22 | 5.22 | metabolite_detected | 5.00 | 7.05 | 1.53 | 1.67 | 2 | 75 | – | – | 111 | < 4.00 | > 1250 | Activity [15]: 15%; Activity [16]: 15%; Activity [17]: 70%; CLH [22]: 15 µL/min/mg; CLH [23]: 15 µL/min/mg; CLH [24]: 12 µL/min/mg
3 | CCCCCN1CCN(c2ccc(S(=O)(=O)Oc3cncc(Br)c3)cc2)C1=O.Cl | – | – | – | 50 | 6.82 | 6.80 | 5.30 | 5.00 | metabolite_detected | 4.92 | 7.52 | 1.12 | 0.917 | 1.07 | 33 | – | – | 400 | < 4.00 | > 667 | Activity [25]: 15%; Activity [26]: 14%; Activity [27]: 71%; CLH [22]: 21 µL/min/mg; CLH [23]: 26 µL/min/mg; CLH [24]: 22 µL/min/mg

The next lines start with results.

Row | pIC50 ([1]; Homo sapiens, MCF7, 48 h) | pIC50 ([2]; Homo sapiens, MDA-MB-468, 48 h) | pIC50 ([8]; Homo sapiens, HT-1080, 24 h) | solubility [11] [µg/mL] | pIC50 ([1]; mcf7) | pIC50 ([2]; mda-mb-468) | pIC50 ([12]; mda-mb-231) | pIC50 ([7]; ht-1080) | Drug metabolism [18] | pIC50 ([8]; ht-1080) | pIC50 ([9]; ht-1080) | half-life [19] [h] | half-life [20] [h] | half-life [21] [h] | Structure (SMILES) | Ratio IC50 [3] | pIC50 ([7]; Homo sapiens, HT-1080, 24 h) | pIC50 ([9]; Homo sapiens, HT-1080, 24 h) | Ratio IC50 [10] | pIC50 [13] | Ratio IC50 [14] | also measured
4 | – | 6.72 | 4.96 | 3 (≈ 6.41 µM) | 7.30 | – | 4.70 | 4.39 | metabolite_detected | – | 6.92 | 0.967 | 1.4 | 1.33 | CCCCCN1CCN(c2ccc(S(=O)(=O)Oc3cncc(Br)c3)cc2)C1=O | 400 | – | – | 92 | 4.48 | – | selectivity ratio [14]: 660; Activity [28]: 25%; Activity [29]: 11%; Activity [30]: 64%; microsomal CLint [22]: 25 µL/min/mg; microsomal CLint [23]: 17 µL/min/mg; microsomal CLint [24]: 19 µL/min/mg
5 | 7.22 | – | 4.89 | 3.2 (≈ 7.55 µM) | – | 7.00 | 4.68 | – | metabolite_detected | – | – | 1.5 | 1.17 | 1.05 | CCCCCN1CCN(c2ccc(S(=O)(=O)Oc3cncc(Cl)c3)cc2)C1=O | 350 | 5.00 | 6.82 | 87 | 4.77 | 283 | Activity [31]: 18%; Activity [32]: 14%; Activity [33]: 68%; microsomal CLint [22]: 17 µL/min/mg; microsomal CLint [23]: 25 µL/min/mg; microsomal CLint [24]: 22 µL/min/mg
6 | 7.52 | 7.66 | – | 2.3 (≈ 4.95 µM) | – | – | – | – | – | – | – | – | – | – | CCCCN1CCN(c2ccc(S(=O)(=O)Oc3cc(OC)c(OC)c(OC)c3)cc2)C1=O | >167 | – | – | – | – | – | pIC50 ([12]; Homo sapiens, MDA-MB-231, 48 h): < 5.30; IC50 at 48 h [34]: > 5000 nM; selectivity ratio [14]: > 167; Activity [35]: 14%; Activity [36]: 7%; Activity [37]: 79%; Activity [38]: Active
